Non-standard residues stand in square brackets, D forms with d. Residues, ends and D or L forms follow the SMILES beside them. dNMeCha = CN[C@H](CC1CCCCC1)C(=O)O
Tests used:
[1] = test system: human plasma; test: Human plasma anticoagulation, thrombin time (TT); assay type: biochemical
Summary of the method: (§1)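 Compounds added across a wide concentration range to human plasma; APTT, PT and TT clotting times measured on a coagulation instrument, bovine thrombin used for plasma assays. Concentration doubling clotting time estimated by linear extrapolation.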

[2] = Epimerization inhibition by sodium bisulfite (compound of Example 75); assay type: physicochemical; conditions: pH 7.4, 50° C.
Experimental: A 55.55 mM aqueous sodium phosphate solution (adjusted to pH 7.4 with sodium hydroxide) was mixed with an aqueous 27.77 mM sodium bisulfite/27.77 mM sodium phosphate solution (adjusted to pH 7.4 with sodium hydroxide) and water in various ratios to produce buffers containing 0, 5.55, 11.11, 16.66, 22.22 and 27.77 mM sodium bisulfite. A 0.9 ml aliquot of each sodium bisulfite/phosphate buffer was added to separate 13×100 mm culture tubes and placed in a 50° C. Tempblok® heater for 15 minutes. To each culture tube 0.1 ml of a 1 mg/ml aqueous solution of the compound of Example 75 was added and mixed well. […] These samples were allowed to react for 30 minutes at 60° C. and were then evaporated to dryness with nitrogen in a 55° C. N-Evap. The residue was dissolved in 1 ml of methanol and transferred to Varian Si BondElut SPE columns (1 ml) previously conditioned with 2 ml of water then 2 ml of methanol. The dissolved samples were pulled through slowly with a slight vaccum, and the sorbent layer was then washed with 2-1 ml volumes of methanol. The SPE columns were then dried at full vacuum (~25 in. Hg) then 500 μl of 500 mM potassium chloride was passed through the SPE columns. The compounds of interest were eluted with 300 μl of methanol/500 mM potassium chloride (1:1, v/v) into 12×75 mm culture tubes. These eluates were analyzed by the HPLC system described below.
The mobile phase was acetonitrile/methanol/500 mM ammonium acetate pH 7 (3:3:4, v/v) pumped at 1 ml/min with a Shimadzu LC-10AD pump. The column was a Zorbax SB-C8 150×4.6 mm maintained at 40° C. with a Jones Chromatography 7960 column heater. Fifty microliter injections were made with a Waters WISP 712 autosampler. Detection was accomplished with a Kratos 783 UV detector at 360 nm. The percentage of the DLD isomer was calculated using the peak areas of the DLL and DLD isomers in the chromatograms and the following equation: [formula]

[3] = test system: human plasma; test: Human plasma anticoagulation, prothrombin time (PT); assay type: biochemical
Summary of the method: as §1

Structure (SMILES): CN[C@H](CC1CCCCC1)C(=O)N1CCC[C@H]1C(=O)N[C@H](C=O)CCCNC(=N)N.Cl [Example 75, N-methyl-D-cyclohexylalanyl-L-Prolinyl-L-Arginine Aldehyde Hydrochloride] (H-[dNMeCha]-Pro-Arg-aldehyde)
- 2 × Clotting time TT [1]: 18 ng/mL
- Percentage of DLD Isomer ([2]; sodium bisulfite 0 mM, 0 hr): 7.33%
- Percentage of DLD Isomer ([2]; sodium bisulfite 0 mM, 0.5 hr): 31.91%
- Percentage of DLD Isomer ([2]; sodium bisulfite 0 mM, 2 hr): 48.95%
- Percentage of DLD Isomer ([2]; sodium bisulfite 0 mM, 3 hr): 50.21%
- Percentage of DLD Isomer ([2]; sodium bisulfite 0 mM, 4 hr): 50.27%
- Percentage of DLD Isomer ([2]; sodium bisulfite 0 mM, 6 hr): 50.03%
- Percentage of DLD Isomer ([2]; sodium bisulfite 0 mM, 8 hr): 50.15%
- Percentage of DLD Isomer ([2]; sodium bisulfite 0 mM, […]): 44.72%
- Percentage of DLD Isomer ([2]; sodium bisulfite 5 mM, 0 hr): 7.35%
- Percentage of DLD Isomer ([2]; sodium bisulfite 5 mM, 0.5 hr): 14.64%
- Percentage of DLD Isomer ([2]; sodium bisulfite 5 mM, 2 hr): 34.64%
- Percentage of DLD Isomer ([2]; sodium bisulfite 5 mM, 3 hr): 42.75%
- Percentage of DLD Isomer ([2]; sodium bisulfite 5 mM, 4 hr): 47.21%
- Percentage of DLD Isomer ([2]; sodium bisulfite 5 mM, 6 hr): 48.75%
- Percentage of DLD Isomer ([2]; sodium bisulfite 5 mM, 8 hr): 49.61%
- Percentage of DLD Isomer ([2]; sodium bisulfite 5 mM, […]): 24.74%
- Percentage of DLD Isomer ([2]; sodium bisulfite 10 mM, 0 hr): 7.54%
- Percentage of DLD Isomer ([2]; sodium bisulfite 10 mM, 0.5 hr): 10.79%
- Percentage of DLD Isomer ([2]; sodium bisulfite 10 mM, 2 hr): 25.55%
- Percentage of DLD Isomer ([2]; sodium bisulfite 10 mM, 3 hr): 35.08%
- Percentage of DLD Isomer ([2]; sodium bisulfite 10 mM, 4 hr): 41.99%
- Percentage of DLD Isomer ([2]; sodium bisulfite 10 mM, 6 hr): 50.73%
- Percentage of DLD Isomer ([2]; sodium bisulfite 10 mM, 8 hr): 51.60%
- Percentage of DLD Isomer ([2]; sodium bisulfite 10 mM, […]): 17.72%
- Percentage of DLD Isomer ([2]; sodium bisulfite 15 mM, 0 hr): 8.37%
- Percentage of DLD Isomer ([2]; sodium bisulfite 15 mM, 0.5 hr): 10.31%
- Percentage of DLD Isomer ([2]; sodium bisulfite 15 mM, 2 hr): 21.41%
- Percentage of DLD Isomer ([2]; sodium bisulfite 15 mM, 3 hr): 28.54%
- Percentage of DLD Isomer ([2]; sodium bisulfite 15 mM, 4 hr): 35.26%
- Percentage of DLD Isomer ([2]; sodium bisulfite 15 mM, 6 hr): 46.26%
- Percentage of DLD Isomer ([2]; sodium bisulfite 15 mM, 8 hr): 50.58%
- Percentage of DLD Isomer ([2]; sodium bisulfite 15 mM, […]): 15.19%
- Percentage of DLD Isomer ([2]; sodium bisulfite 20 mM, 0 hr): 7.65%
- Percentage of DLD Isomer ([2]; sodium bisulfite 20 mM, 0.5 hr): 9.90%
- Percentage of DLD Isomer ([2]; sodium bisulfite 20 mM, 2 hr): 17.28%
- Percentage of DLD Isomer ([2]; sodium bisulfite 20 mM, 3 hr): 23.70%
- Percentage of DLD Isomer ([2]; sodium bisulfite 20 mM, 4 hr): 29.34%
- Percentage of DLD Isomer ([2]; sodium bisulfite 20 mM, 6 hr): 43.32%
- Percentage of DLD Isomer ([2]; sodium bisulfite 20 mM, 8 hr): 48.73%
- Percentage of DLD Isomer ([2]; sodium bisulfite 20 mM, […]): 12.88%
- Percentage of DLD Isomer ([2]; sodium bisulfite 25 mM, 0 hr): 8.16%
- Percentage of DLD Isomer ([2]; sodium bisulfite 25 mM, 0.5 hr): 9.47%
- Percentage of DLD Isomer ([2]; sodium bisulfite 25 mM, 2 hr): 14.78%
- Percentage of DLD Isomer ([2]; sodium bisulfite 25 mM, 3 hr): 18.66%
- Percentage of DLD Isomer ([2]; sodium bisulfite 25 mM, 4 hr): 24.34%
- Percentage of DLD Isomer ([2]; sodium bisulfite 25 mM, 6 hr): 37.60%
- Percentage of DLD Isomer ([2]; sodium bisulfite 25 mM, 8 hr): 46.26%
- Percentage of DLD Isomer ([2]; sodium bisulfite 25 mM, […]): 11.42%
- 2 × Clotting time PT [3]: 720 ng/mL

— US5436229A, “Bisulfite adducts of arginine aldehydes” (Eli Lilly and Company, priority 1994, dated 1995)
